According to patent US20250120988A1, “SMALL MOLECULE COMPOUND FOR TREATING ISCHEMIC STROKE, ITS PREPARATION METHOD, AND APPLICATION” (SHANGHAI SIXTH PEOPLE'S HOSPITAL, priority 2023, published 2025):

Assays:
primary cortical neurons [1] = test: LDH release from cultured neurons after OGD; type: cell-based, mice; details: 10 μM, OGD 1 hour, pH 7.0
Protocol: (§1) Figure a illustrates cortical neurons staining from wild-type (ASIC1a+/+) and gene-deficient (ASIC1a−/−) mice primary cultures in the calcein-PI staining experiment. Blue green represents viable cells, and red represents dead cell nuclei. 10 μM CGS19755 and 10 μM LK-2 were added respectively in the cell culture medium under pH 7.0 conditions with OGD to be treated for 1 hour. Figure c illustrates, after being treated in the same experimental groups as Figure a, the analysis of each group of LDH of relative release levels. Figure d illustrates PI staining of ASIC1a-transfected CHO cells after 1 hour of treatment with pH 7.0 and 500 μM glutamate (Glu). Green represents green fluorescent protein (GFP), indicating ASIC1a-expressing CHO cells (GFP+), and red represents dead cell nuclei. The concentration of LK-2 was 10 μM. GFP-indicates ASIC1a-untransfected cells. […]
The LDH assay kit (Biyuntian) was used to measure the release of LDH from cultured neurons after 1 hour of oxygen-glucose deprivation (OGD). […] The absorbance of the target was measured at 490 nm wavelength using a spectrophotometer (Thermo Scientific), while the background absorbance was measured at 620 nm wavelength. […]

[2] = test system: CHO cells transfected with ASIC1a; test: PI cell death staining of ASIC1a-transfected CHO cells treated with glutamate at pH 7; type: cell-based, Chinese hamster; details: 10 μM; 500 μM glutamate, pH 7, 1 hour
Protocol: as §1, with “(Glu).” for “(Glu). Green represents green fluorescent protein (GFP), indicating ASIC1a-expressing CHO cells (GFP+), and red represents dead cell nuclei. The concentration of LK-2 was 10 μM. GFP-indicates ASIC1a-untransfected cells.”
(§2) Taking into consideration that in addition to ASIC1a, neurons also express multiple membrane proteins that can be activated and lead to cell death during OGD, in order to more accurately verify that cell death is caused by glutamate activation of ASIC1a and that LK-2 indeed competitively antagonizes the glutamate so as to reduce cell death, we conducted the following experiment: CHO cells transfected with ASIC1a-GFP were divided into a control group (500 μM glutamate) and a drug intervention group (500 μM glutamate+10 μM LK-2). […] Live and dead cell nuclei were determined by observing under a 40× objective using excitation wavelengths of 488 nm and 546 nm. The number of stained cell nuclei was counted using Image-J software.

primary cortical neurons [3] = test: Calcein-PI cell death staining of primary neurons under oxygen-glucose deprivation (OGD); type: cell-based, mice; details: 10 μM; primary cultured neurons; OGD 1 hour, pH 7.0
Protocol: as §1, with “(Glu).” for “(Glu). Green represents green fluorescent protein (GFP), indicating ASIC1a-expressing CHO cells (GFP+), and red represents dead cell nuclei. The concentration of LK-2 was 10 μM. GFP-indicates ASIC1a-untransfected cells.”
as §2

O=C(O)C1CN(C(c2ccccc2)P(=O)(O)O)CCN1 (stereo not drawn) [LK-2]
reduction of lactate dehydrogenase release (primary cortical neurons [1]): 50%
reduction of death rate of transfected cells [2]: 40%
reduction of cell death rate (primary cortical neurons [3]): 87%
